The results in this text go back to patent publication US20190330224A1, “ACC INHIBITORS AND USES THEREOF” (Gilead Apollo, LLC, priority 2015, published 2019).

≈ marks a conversion by molar mass, not a printed value.

In experiment [1] the test system is C. parapsilosis ATCC 22019. Nature of the experiment: Anti-Fungal Activity Assay (broth microtiter MIC), C. parapsilosis. Type of experiment: cell-based, Candida parapsilosis. Conditions: Lodderomyces parapsilosis, ATCC22019, 48 h, 3 replicates; MIC recorded at 48 h; read-out: MIC C. parapsilosis ATCC 22019. In a few lines:
(§1)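 Plate from frozen stock onto Sabouraud dextrose agar, 35° C overnight; swab colonies into RPMI 1640+MOPS; set density via standard curves; run CLSI M27-A3 broth microdilution; score MIC visually versus growth control at 48 h, soraphen additionally at 24 h.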

The target of experiment [2] is Fungal ACC2 (UniProt Q00955). The following applies: read-out: Fungal ACC2 (IC50, in vitro ACC2 inhibition).
Fungal ACC2, sequence (Q00955 whole entry): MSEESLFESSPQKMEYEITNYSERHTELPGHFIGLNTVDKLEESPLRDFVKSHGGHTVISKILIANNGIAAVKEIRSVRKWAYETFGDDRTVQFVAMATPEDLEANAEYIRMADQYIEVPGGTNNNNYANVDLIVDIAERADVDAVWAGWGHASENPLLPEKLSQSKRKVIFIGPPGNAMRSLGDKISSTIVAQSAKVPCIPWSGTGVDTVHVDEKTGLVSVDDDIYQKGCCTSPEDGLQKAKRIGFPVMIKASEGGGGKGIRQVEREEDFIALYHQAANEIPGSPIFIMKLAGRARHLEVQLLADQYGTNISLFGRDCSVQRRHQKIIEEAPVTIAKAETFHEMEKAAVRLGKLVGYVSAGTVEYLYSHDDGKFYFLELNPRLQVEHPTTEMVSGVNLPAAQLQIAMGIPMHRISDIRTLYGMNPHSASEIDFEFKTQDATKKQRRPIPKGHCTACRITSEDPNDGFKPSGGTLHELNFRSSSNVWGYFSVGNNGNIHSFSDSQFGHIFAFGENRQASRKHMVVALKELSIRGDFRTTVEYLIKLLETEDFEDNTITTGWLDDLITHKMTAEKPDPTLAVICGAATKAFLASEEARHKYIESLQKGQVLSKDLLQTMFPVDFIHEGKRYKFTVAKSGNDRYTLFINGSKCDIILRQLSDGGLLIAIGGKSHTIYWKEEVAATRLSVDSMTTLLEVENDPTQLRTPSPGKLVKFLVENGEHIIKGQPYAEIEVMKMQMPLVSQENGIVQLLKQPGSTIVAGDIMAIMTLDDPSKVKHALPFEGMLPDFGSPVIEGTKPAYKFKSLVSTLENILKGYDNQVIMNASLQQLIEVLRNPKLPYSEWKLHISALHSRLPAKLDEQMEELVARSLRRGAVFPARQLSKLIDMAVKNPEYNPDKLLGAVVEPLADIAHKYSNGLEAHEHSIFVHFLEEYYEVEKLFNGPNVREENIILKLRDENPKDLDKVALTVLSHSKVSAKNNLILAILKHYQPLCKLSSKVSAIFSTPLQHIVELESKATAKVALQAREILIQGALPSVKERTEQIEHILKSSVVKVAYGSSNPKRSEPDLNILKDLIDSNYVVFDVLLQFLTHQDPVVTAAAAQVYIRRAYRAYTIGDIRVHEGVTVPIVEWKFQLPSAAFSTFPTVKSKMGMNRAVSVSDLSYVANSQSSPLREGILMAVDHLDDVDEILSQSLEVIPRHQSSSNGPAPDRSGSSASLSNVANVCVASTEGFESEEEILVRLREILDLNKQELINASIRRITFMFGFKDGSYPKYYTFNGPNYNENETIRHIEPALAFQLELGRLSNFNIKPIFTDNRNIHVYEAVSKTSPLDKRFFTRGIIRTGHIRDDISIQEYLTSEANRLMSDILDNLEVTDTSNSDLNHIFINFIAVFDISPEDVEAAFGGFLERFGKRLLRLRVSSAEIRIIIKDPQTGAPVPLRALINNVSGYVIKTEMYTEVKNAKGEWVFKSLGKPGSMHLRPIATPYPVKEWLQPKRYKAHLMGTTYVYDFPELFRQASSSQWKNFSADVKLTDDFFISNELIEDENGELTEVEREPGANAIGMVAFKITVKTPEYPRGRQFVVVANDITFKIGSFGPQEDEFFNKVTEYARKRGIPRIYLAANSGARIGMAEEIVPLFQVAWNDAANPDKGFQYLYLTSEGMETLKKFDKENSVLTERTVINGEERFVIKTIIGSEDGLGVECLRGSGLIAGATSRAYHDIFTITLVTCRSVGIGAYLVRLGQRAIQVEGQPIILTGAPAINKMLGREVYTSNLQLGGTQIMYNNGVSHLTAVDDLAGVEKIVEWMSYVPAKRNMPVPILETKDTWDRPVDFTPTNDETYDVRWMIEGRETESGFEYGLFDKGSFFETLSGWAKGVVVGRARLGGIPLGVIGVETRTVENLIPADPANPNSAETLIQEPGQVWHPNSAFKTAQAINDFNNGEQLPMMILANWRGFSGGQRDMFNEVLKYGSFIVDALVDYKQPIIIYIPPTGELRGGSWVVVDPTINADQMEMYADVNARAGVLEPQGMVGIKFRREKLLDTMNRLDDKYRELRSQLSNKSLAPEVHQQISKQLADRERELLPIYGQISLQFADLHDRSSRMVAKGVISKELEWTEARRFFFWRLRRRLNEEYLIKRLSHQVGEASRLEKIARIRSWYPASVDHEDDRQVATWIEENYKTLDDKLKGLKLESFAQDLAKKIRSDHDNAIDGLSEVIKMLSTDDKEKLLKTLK
Experiment [3] has as its system C. albicans ATCC 90028. Nature of the experiment: Anti-Fungal Activity Assay (broth microtiter MIC), C. albicans. Conditions: Candida albicans, ATCC90028, 48 h, 3 replicates; MIC recorded at 48 h; read-out: MIC C. albicans ATCC 90028. Type of experiment: cell-based, Candida albicans. In a few lines:
as §1

Experiment [4] addresses Human ACC2 (Homo sapiens, UniProt O00763). Nature of the experiment: In vitro ACC2 inhibition assay (ADP-Glo), human ACC2. The experiment is classed as biochemical. Conditions: 5 nM ACC2, 20 μM ATP, 20 μM acetyl-CoA. A general note: ADP-Glo turns the ADP formed in a reaction into a luminescent signal.
Experiment [5] has as its system C. krusei ATCC 6258. Nature of the experiment: Anti-Fungal Activity Assay (broth microtiter MIC), C. krusei. Type of experiment: cell-based, Candida krusei. Conditions: Pichia kudriavzevii, ATCC6258, 48 h, 3 replicates; MIC recorded at 48 h; read-out: MIC C. krusei ATCC 6258. The method, boiled down:
as §1

Human ACC2, sequence (O00763 whole entry): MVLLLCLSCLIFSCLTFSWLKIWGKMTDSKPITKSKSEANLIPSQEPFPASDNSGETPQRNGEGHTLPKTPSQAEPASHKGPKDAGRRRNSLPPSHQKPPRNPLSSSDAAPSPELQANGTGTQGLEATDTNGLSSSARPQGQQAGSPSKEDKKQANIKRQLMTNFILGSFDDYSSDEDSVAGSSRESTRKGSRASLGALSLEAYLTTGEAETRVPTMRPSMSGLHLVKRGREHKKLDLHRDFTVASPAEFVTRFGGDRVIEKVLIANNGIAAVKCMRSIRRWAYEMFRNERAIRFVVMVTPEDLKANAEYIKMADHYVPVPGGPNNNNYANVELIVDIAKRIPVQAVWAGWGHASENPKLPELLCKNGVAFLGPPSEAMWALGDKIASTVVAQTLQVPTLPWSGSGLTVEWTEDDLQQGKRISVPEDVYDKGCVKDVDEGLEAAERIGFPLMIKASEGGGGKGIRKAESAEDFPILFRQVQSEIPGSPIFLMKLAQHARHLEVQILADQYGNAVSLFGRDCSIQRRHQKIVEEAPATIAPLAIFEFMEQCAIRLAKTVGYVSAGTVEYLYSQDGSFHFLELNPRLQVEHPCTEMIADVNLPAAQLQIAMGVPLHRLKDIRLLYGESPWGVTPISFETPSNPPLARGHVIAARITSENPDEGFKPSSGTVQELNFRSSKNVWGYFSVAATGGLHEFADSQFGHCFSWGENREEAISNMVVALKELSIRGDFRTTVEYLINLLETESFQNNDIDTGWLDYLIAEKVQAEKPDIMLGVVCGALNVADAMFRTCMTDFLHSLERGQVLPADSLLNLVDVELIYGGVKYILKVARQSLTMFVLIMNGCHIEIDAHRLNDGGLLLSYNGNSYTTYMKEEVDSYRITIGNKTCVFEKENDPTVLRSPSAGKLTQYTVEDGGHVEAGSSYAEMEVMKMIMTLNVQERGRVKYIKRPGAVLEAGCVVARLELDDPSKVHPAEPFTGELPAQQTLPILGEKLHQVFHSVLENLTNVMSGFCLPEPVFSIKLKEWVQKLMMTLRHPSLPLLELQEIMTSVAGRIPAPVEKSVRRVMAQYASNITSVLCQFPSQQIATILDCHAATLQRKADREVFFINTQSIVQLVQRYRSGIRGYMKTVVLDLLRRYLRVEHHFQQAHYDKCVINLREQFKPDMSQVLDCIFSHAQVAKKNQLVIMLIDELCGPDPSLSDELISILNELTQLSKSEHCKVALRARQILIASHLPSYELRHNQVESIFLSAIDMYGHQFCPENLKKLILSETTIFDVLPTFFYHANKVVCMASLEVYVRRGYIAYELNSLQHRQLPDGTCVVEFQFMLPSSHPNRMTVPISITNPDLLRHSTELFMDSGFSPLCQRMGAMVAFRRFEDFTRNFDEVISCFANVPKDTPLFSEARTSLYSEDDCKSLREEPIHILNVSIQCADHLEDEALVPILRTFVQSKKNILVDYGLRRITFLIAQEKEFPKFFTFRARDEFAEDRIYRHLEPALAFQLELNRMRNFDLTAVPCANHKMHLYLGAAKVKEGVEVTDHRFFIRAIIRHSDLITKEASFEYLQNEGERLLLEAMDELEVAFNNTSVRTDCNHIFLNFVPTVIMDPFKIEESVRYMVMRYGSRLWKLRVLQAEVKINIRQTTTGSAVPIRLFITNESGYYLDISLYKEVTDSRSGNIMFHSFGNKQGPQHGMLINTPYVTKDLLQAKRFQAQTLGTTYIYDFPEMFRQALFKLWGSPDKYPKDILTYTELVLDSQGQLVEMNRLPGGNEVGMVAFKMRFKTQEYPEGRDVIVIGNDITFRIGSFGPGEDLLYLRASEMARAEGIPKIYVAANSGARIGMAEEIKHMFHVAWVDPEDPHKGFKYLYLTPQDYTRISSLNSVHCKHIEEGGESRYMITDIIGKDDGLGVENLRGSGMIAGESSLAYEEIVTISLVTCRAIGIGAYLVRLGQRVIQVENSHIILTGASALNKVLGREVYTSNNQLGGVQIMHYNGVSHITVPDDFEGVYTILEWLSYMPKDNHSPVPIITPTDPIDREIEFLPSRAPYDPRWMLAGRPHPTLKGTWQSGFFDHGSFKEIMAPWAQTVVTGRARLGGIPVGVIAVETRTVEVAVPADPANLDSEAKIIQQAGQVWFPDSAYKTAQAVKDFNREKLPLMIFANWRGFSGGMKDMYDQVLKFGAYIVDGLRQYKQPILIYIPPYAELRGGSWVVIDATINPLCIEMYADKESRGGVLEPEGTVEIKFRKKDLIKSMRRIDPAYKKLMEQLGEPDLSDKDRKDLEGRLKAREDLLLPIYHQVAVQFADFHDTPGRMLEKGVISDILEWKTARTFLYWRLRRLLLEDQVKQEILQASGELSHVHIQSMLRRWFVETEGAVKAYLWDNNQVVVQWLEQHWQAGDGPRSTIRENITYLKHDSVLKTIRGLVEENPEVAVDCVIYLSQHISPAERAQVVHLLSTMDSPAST

Turning to `COc1ccccc1[C@@H](O)Cn1c(=O)n([C@@H]2CCN(C)C2=O)c(=O)c2c(C)c(-n3nccn3)sc21` [Compound I-169, 1-((R)-2-hydroxy-2-(2-methoxyphenyl)ethyl)-5-methyl-3-((R)-1-methyl-2-oxopyrrolidin-3-yl)-6-(2H-1,2,3-triazol-2-yl)thieno[2,3-d]pyrimidine-2,4(1H,3H)-dione], the MIC in experiment [1], in experiment [3] and in experiment [5] was 2.1 to 4 µg/mL (≈ 4.23 to 8.06 µM) throughout. For the same compound, the IC50 lay in the range of 0.0007 to 0.002 µM in experiment [2] and 0.01 to 0.1 µM in experiment [4].

`COc1ccc(F)cc1[C@H](Cn1c(=O)n([C@@H]2CCN(C)C2=O)c(=O)c2c(C)c(-n3nccn3)sc21)OC` [Compound I-170, 1-((R)-2-(5-fluoro-2-methoxyphenyl)-2-methoxyethyl)-5-methyl-3-((R)-1-methyl-2-oxopyrrolidin-3-yl)-6-(2H-1,2,3-triazol-2-yl)thieno[2,3-d]pyrimidine-2,4(1H,3H)-dione]: the MIC in experiment [1], in experiment [3] and in experiment [5] was 2.1 to 4 µg/mL (≈ 3.97 to 7.57 µM) in each case. Moreover, the IC50 in experiment [2] lay within 0.0007 to 0.002 µM; in experiment [4], 0.01 to 0.1 µM.

For `COc1ccccc1[C@H](Cn1c(=O)n([C@H]2CCN(C)C2=O)c(=O)c2c(C)c(-n3nccn3)sc21)OC` [Compound I-171, 1-((R)-2-methoxy-2-(2-methoxyphenyl)ethyl)-5-methyl-3-((S)-1-methyl-2-oxopyrrolidin-3-yl)-6-(2H-1,2,3-triazol-2-yl)thieno[2,3-d]pyrimidine-2,4(1H,3H)-dione], the MIC in experiment [1], in experiment [3] and in experiment [5] was 2.1 to 4 µg/mL (≈ 4.11 to 7.83 µM) throughout. For the same compound, the figures for the IC50 in experiment [2] and in experiment [4] were 0.002 to 0.01 µM and 0.01 to 0.1 µM, respectively.

For the compound `COc1ccccc1[C@H](Cn1c(=O)n([C@@H]2CCN(C)C2=O)c(=O)c2c(C)c(-n3nccn3)sc21)OC` [Compound I-172, 1-((R)-2-methoxy-2-(2-methoxyphenyl)ethyl)-5-methyl-3-((R)-1-methyl-2-oxopyrrolidin-3-yl)-6-(2H-1,2,3-triazol-2-yl)thieno[2,3-d]pyrimidine-2,4(1H,3H)-dione], the MIC in experiment [1], in experiment [3] and in experiment [5] was 2.1 to 4 µg/mL (≈ 4.11 to 7.83 µM) throughout. Further, the IC50 in experiment [2] is 0.0007 to 0.002 µM; in experiment [4], 0.01 to 0.1 µM.

Regarding `COc1ccc(F)cc1[C@H](Cn1c(=O)n([C@H]2CCCNC2=O)c(=O)c2c(C)c(-n3nccn3)sc21)O[C@H]1CC[C@@H](O)CC1` [Compound I-173, 1-((R)-2-(S-fluoro-2-methoxyphenyl)-2-(((1s, 4S)-4-hydroxycyclohexyl)oxy)ethyl)-5-methyl-3-((S)-2-oxopiperidin-3-yl)-6-(2H-1,2,3-triazol-2-yl)thieno[2,3-d]pyrimidine-2,4(1H, 3H)-dione], the MIC in experiment [1], in experiment [3] and in experiment [5] was 2.1 to 4 µg/mL (≈ 3.43 to 6.53 µM) each time. The figures for the IC50 in experiment [2] and in experiment [4] were 0.0007 to 0.002 µM and 0.002 to 0.01 µM, respectively.

For `COc1ccc(F)cc1[C@H](Cn1c(=O)n([C@@H]2CCCNC2=O)c(=O)c2c(C)c(-n3nccn3)sc21)O[C@H]1CC[C@@H](O)CC1` [Compound I-174, 1-((R)-2-(5-fluoro-2-methoxyphenyl)-2-(((1 s, 4S)-4-hydroxycyclohexyl)oxy)ethyl)-5-methyl-3-((R)-2-oxopiperidin-3-yl)-6-(2H-1,2,3-triazol-2-yl)thieno[2,3-d]pyrimidine-2,4(1H,3H)-dione], the values for the MIC in experiment [1], in experiment [3] and in experiment [5] were 1.1 to 2 µg/mL (≈ 1.8 to 3.26 µM), 0.25 to 1 µg/mL (≈ 0.408 to 1.63 µM) and 0.25 to 1 µg/mL (≈ 0.408 to 1.63 µM), respectively. In addition, the IC50 in experiment [2] fell in the range of 0.0007 to 0.002 µM; in experiment [4], 0.002 to 0.01 µM.

As to `COc1ccc(F)cc1[C@H](Cn1c(=O)n([C@@H]2CCN(C)C2=O)c(=O)c2c(C)c(-n3nccn3)sc21)OCCC(=O)O` [Compound I-175, 3-((R)-1-(5-fluoro-2-methoxyphenyl)-2-(5-methyl-3-((R)-1-methyl-2-oxopyrrolidin-3-yl)-2,4-dioxo-6-(2H-1,2,3-triazol-2-yl)-3,4-dihydro-thieno[2,3-d]pyrimidin-1(2H)-yl)ethoxy)propanoic acid], the MIC in experiment [1], in experiment [3] and in experiment [5] was 2.1 to 4 µg/mL (≈ 3.58 to 6.82 µM) throughout. The results for the IC50 in experiment [2] and in experiment [4] were 0.0007 to 0.002 µM and 0.01 to 0.1 µM, respectively.

Consider `COc1ccc(F)cc1[C@H](Cn1c(=O)n([C@H]2CCN(C)C2=O)c(=O)c2c(C)c(-n3nccn3)sc21)OCCC(=O)O` [Compound I-176, 3-((R)-1-(5-fluoro-2-methoxyphenyl)-2-(5-methyl-3-((S)-1-methyl-2-oxopyrrolidin-3-yl)-2,4-dioxo-6-(2H-1,2,3-triazol-2-yl)-3,4-dihydrothieno[2,3-d]pyrimidin-1 (2H)-yl)ethoxy)propanoic acid], for which the MIC in experiment [1], in experiment [3] and in experiment [5] was 2.1 to 4 µg/mL (≈ 3.58 to 6.82 µM) each time. Also, the concentration for half-maximal inhibition (IC50) in experiment [2] fell in the range of 0.002 to 0.01 µM; in experiment [4] it was 0.01 to 0.1 µM.

For `COc1ccc(F)cc1[C@H](Cn1c(=O)n([C@H]2CCCNC2=O)c(=O)c2c(C)c(-n3nccn3)sc21)OCCC(=O)O` [Compound I-177, 3-((R)-1-(5-fluoro-2-methoxyphenyl)-2-(5-methyl-2,4-dioxo-3-((S)-2-oxopiperidin-3-yl)-6-(2H-1,2,3-triazol-2-yl)-3,4-dihydrothieno[2,3-d]pyrimidin-1 (2H)-yl)ethoxy)propanoic acid], the MIC in experiment [1], in experiment [3] and in experiment [5] was 2.1 to 4 µg/mL (≈ 3.58 to 6.82 µM) in each case. Further, the values for the IC50 in experiment [2] and in experiment [4] were 0.002 to 0.01 µM and 0.01 to 0.1 µM, respectively.

As to `COc1ccc(F)cc1[C@H](Cn1c(=O)n([C@@H]2CCN(C)C2=O)c(=O)c2c(C)c(-n3cccn3)sc21)OCCC(=O)O` [Compound I-179, 3-((R)-1-(5-fluoro-2-methoxyphenyl)-2-(5-methyl-3-((R)-1-methyl-2-oxopyrrolidin-3-yl)-2,4-dioxo-6-(H-pyrazol-1-yl)-3,4-dihydrothieno[2,3-d]pyrimidin-1 (2H)-yl)ethoxy)propanoic acid], the MIC in experiment [1], in experiment [3] and in experiment [5] was 2.1 to 4 µg/mL (≈ 3.59 to 6.83 µM) in each case. The IC50 fell in the range of 0.002 to 0.01 µM in experiment [2] and 0.01 to 0.1 µM in experiment [4].

As for `COc1ccc(F)cc1[C@H](Cn1c(=O)n([C@H]2CCN(C)C2=O)c(=O)c2c(C)c(-n3cccn3)sc21)OCCC(=O)O` [Compound I-180, 3-((R)-1-(5-fluoro-2-methoxyphenyl)-2-(5-methyl-3-((S)-1-methyl-2-oxopyrrolidin-3-yl)-2,4-dioxo-6-(1H-pyrazol-1-yl)-3,4-dihydrothieno[2,3-d]pyrimidin-1(2H)-yl)ethoxy)propanoic acid], the MIC in experiment [1], in experiment [3] and in experiment [5] was 2.1 to 4 µg/mL (≈ 3.59 to 6.83 µM) each time. Besides, the values for the IC50 in experiment [2] and in experiment [4] were 0.01 to 0.1 µM and 0.1 to 1 µM, respectively.

Take `COc1ccc(F)cc1[C@H](Cn1c(=O)n([C@@H]2CCN(C)C2=O)c(=O)c2c(C)c(-n3cccn3)sc21)O[C@H]1CC[C@@H](O)CC1` [Compound I-181, 1-((R)-2-(5-fluoro-2-methoxyphenyl)-2-(((I s, 4S)-4-hydroxycyclohexyl)oxy)ethyl)-5-methyl-3-((R)-1-methyl-2-oxopyrrolidin-3-yl)-6-(1H-pyrazol-1-yl)thieno[2,3-d]pyrimidine-2,4(1H,3H)-dione]: the minimum inhibitory concentration (MIC) in experiment [1] lay in the range of 1.1 to 2 µg/mL (≈ 1.8 to 3.27 µM); in experiment [3] it was 0.25 to 1 µg/mL (≈ 0.409 to 1.63 µM); in experiment [5] it was 1.1 to 2 µg/mL (≈ 1.8 to 3.27 µM). Moreover, the IC50 fell in the range of 0.0007 to 0.002 µM in experiment [2] and 0.002 to 0.01 µM in experiment [4].

Consider `COc1ccc(F)cc1[C@H](Cn1c(=O)n([C@H]2CCN(C)C2=O)c(=O)c2c(C)c(-n3cccn3)sc21)O[C@H]1CC[C@@H](O)CC1` [Compound I-182], for which the MIC in experiment [1], in experiment [3] and in experiment [5] was 2.1 to 4 µg/mL (≈ 3.43 to 6.54 µM) throughout. The values for the IC50 in experiment [2] and in experiment [4] were 0.0007 to 0.002 µM and 0.01 to 0.1 µM, respectively.

As to `COc1ccc(F)cc1[C@H](Cn1c(=O)n([C@@H]2CCN(C)C2=O)c(=O)c2c(C)c(-n3nccn3)sc21)O[C@H]1C[C@@H](O)C1` [Compound I-183, 1-((R)-2-(5-fluoro-2-methoxyphenyl)-2-((1s, 3S)-3-hydroxycyclobutoxy)ethyl)-5-methyl-3-((R)-1-methyl-2-oxopyrrolidin-3-yl)-6-(2H-1,2,3-triazol-2-yl)thieno[2,3-d]pyrimidine-2,4(1H,3H)-dione], the MIC lay within 1.1 to 2 µg/mL (≈ 1.88 to 3.42 µM) in experiment [1], 0.25 to 1 µg/mL (≈ 0.428 to 1.71 µM) in experiment [3] and 0.25 to 1 µg/mL (≈ 0.428 to 1.71 µM) in experiment [5]. Also, the IC50 is 0.0007 to 0.002 µM in experiment [2] and 0.002 to 0.01 µM in experiment [4].

As to `COc1ccc(F)cc1[C@H](Cn1c(=O)n([C@@H]2CCNC2=O)c(=O)c2c(C)c(-n3nccn3)sc21)O[C@H]1C[C@@H](O)C1` [Compound I-184, 1-((R)-2-(5-fluoro-2-methoxyphenyl)-2-((1s, 3S)-3-hydroxycyclobutoxy)ethyl)-5-methyl-3-((R)-2-oxopyrrolidin-3-yl)-6-(2H-1-1,2,3-triazol-2-yl)thieno[2,3-d]pyrimidine-2,4(1H,3H)-dione], the MIC in experiment [1], in experiment [3] and in experiment [5] was 2.1 to 4 µg/mL (≈ 3.68 to 7.01 µM) throughout. The results for the IC50 in experiment [2] and in experiment [4] were 0.0007 to 0.002 µM and 0.002 to 0.01 µM, respectively.

For orientation: MIC means the smallest concentration in the dilution series that meets the test's criterion for growth inhibition. The term IC50 denotes the concentration that gives 50% inhibition.
